Assays:
[1] = Evaluation of stability in plasma; assay type: in vitro ADME; details: 37° C., 24 hours
Method: A saline (20 μL) solution of [^111In]In-PSMA-DA1 (370 kBq) or [^90Y]Y-PSMA-DA1 (3.7 MBq) was added to mouse plasma (200 μL), and the mixture was allowed to stand at 37° C. for 24 hours (n=3). Then, MeCN (200 μL) was added, and the mixture was centrifuged at 10,000×g for 5 minutes. The supernatant was filtered, and the filtrate was analyzed by reverse phase HPLC under the following conditions.
(Analytical conditions: Cosmosil 5C18-PAQ column (4.6×250 mm); mobile phase: MeCN/H2O/TFA [20/80/0.1 (0 min) to 50/50/0.1 (30 min)]; flow rate: 1 mL/min.)
A saline (20 μL) solution of [^111In]In-PtDA (259 kBq) was added to mouse plasma (200 μL), and the mixture was allowed to stand at 37° C. for 24 hours (n=3). MeCN (400 μL) was added thereto, and the mixture was centrifuged at 10,000×g for 5 minutes. The supernatant was filtered, and the filtrate was analyzed by reverse phase HPLC under the following conditions.
Analytical conditions: Cosmosil 5C18-AR-II column (4.6×150 mm); mobile phase: MeCN/H2O/TFA [10/90/0.1 (0 min) to 70/30/0.1 (30 min)]; flow rate: 1 mL/min.

[2] = test system: PC-3 cells (PSMA-negative, human prostate cancer); experiment: Binding assay using cultured cells (PC-3); assay type: cell-based; details: 37° C., 1 hour
Method: LNCaP cells (PSMA-positive, human prostate cancer) and PC-3 cells (PSMA-negative, human prostate cancer) were used. These cells were purchased from American Type Culture Collection and DS Biomedical, respectively. Each of the cells were cultured in RPMI 1640, which is manufactured by NACALAI TESQUE, INC. and contains antibiotics (penicillin and streptomycin) and 10% inactivated fetal bovine serum, at 37° C. under 5% CO2.
The LNCaP cells and PC-3 cells were each seeded on a 12 well plate at 4.0×10^5 cells/well, and left standing at 37° C. under 5% CO2 for 48 hours.
The culture medium was removed, and an assay medium (0.5% FBS-containing RPMI 1640 medium) solution (1 mL) containing [^111In]In-PSMA-DA1 or [^111In]In-PSMA-DB (37 kBq) was added. Thereafter, the plate was allowed to stand at 37° C. under 5% CO2 for 1 hour. […]
The radioactivity for each of the assay medium and the cell lysate was measured with a gamma counter. Separately, the total protein concentration in the cell lysate was calculated using BCA Protein Assay Kit, which is manufactured by Thermo Fisher Scientific K.K. The value (% ID/mg protein) obtained by dividing the percentage (% ID) of the sample's radioactivity amount to the added radioactivity amount by the total protein amount was calculated for each sample. […]

- stably present in mouse plasma [1]: ≥ 95%
Compound: O=C([O-])CN1CCN(C(CCC(=O)NCCC(=O)N2Cc3ccccc3-c3c(nnn3CCOCCOCCOCCOCCC(=O)NCCCC[C@H](NC(=O)N[C@@H](CCC(=O)O)C(=O)O)C(=O)O)-c3ccccc32)C(=O)[O-])CCN(CC(=O)[O-])CCN(C(CCC(=O)N[C@@H](CCCCNC(=O)CCCc2ccc(I)cc2)C(=O)O)C(=O)[O-])CC1.[111In+3] (some centres unmarked) [[^111In]In-PtDA]
- binding to PC-3 cells [2]: 0.15 % ID/mg protein
